Results taken from patent US4596790A, “Peptides for the treatment of hyperglycaemia” (Nyegaard & Co. A/S, priority 1983, dated 1986).
Non-standard residues stand in square brackets, D forms with d. Residues, ends and D or L forms follow the SMILES beside them. No end group written: not given here. pGlu = O=C1CC[C@@H](C(=O)O)N1

Legend:
pancreatic β-cells = test: insulin releasing activity (potentiation of the insulin releasing activity of glucose); settings: qualitative ranking among the compounds prepared
[1] = reported in the literature; cited from earlier work

| Molecule | activity (insulin releasing) (pancreatic β-cells) | hyperglycaemic and hyperinsulinaemic activity [1] |
| --- | --- | --- |
| O=C(O)CNC(=O)[C@H](CC(=O)O)NC(=O)[C@H](CC(=O)O)NC(=O)[C@@H]1CCC(=O)N1 [p-Glu-Asp-Asp-Gly, H-L-(PYRO) GLUTAMYL-L-ASPARTYL-L-ASPARTYL-GLYCINE] (HELM PEPTIDE1{[Glp].D.D.G}$$$$V2.0) | Especially active | – |
| NC(=O)CC[C@H](NC(=O)[C@@H]1CCC(=O)N1)C(=O)N[C@@H](CC(=O)O)C(=O)NCC(=O)O [p-Glu-Gln-Asp-Gly, H-L-(PYRO) GLUTAMYL-L-GLUTAMINYL-L-ASPARTYL-GLYCINE] (HELM PEPTIDE1{[Glp].Q.D.G}$$$$V2.0) | most active | – |
| O=C(O)CC[C@H](NC(=O)[C@@H]1CCC(=O)N1)C(=O)N[C@@H](CC(=O)O)C(=O)NCC(=O)O [p-Glu-Glu-Asp-Gly, H-L-(PYRO) GLUTAMYL-L-GLUTAMYL-L-ASPARTYL-GLYCINE] (HELM PEPTIDE1{[Glp].E.D.G}$$$$V2.0) | Especially active | – |
| [pGlu]SDG | – | hyperglycaemic and hyperinsulinaemic activity |
